Data taken from US5356926A, “3-alkyloxy-, aryloxy-, or arylalkyloxy-benzo [β]thiophene-2-carboxamides as inhibitors of cell adhesion” (Warner-Lambert Company, priority 1993, dated 1994).

Tests used:
[1] = tested on: human neutrophil adhesion to TNFα, IL-1α, and LPS stimulated human umbilical vein endothelial cells; assay: Modified method: inhibition of human neutrophil adhesion to TNF-stimulated HUVEC (calcein fluorescence); type: cell-based; parameters: inhibition: dose or concentration left out as unconfirmed; details: for inhibition: Table 3; for inhibition at 33.3 µM: Table 2, tested at a concentration of 33.3 μM (footnote a)
Source text: MODIFIED METHOD FOR DETERMINING THE INHIBITION OF HUMAN NEUTROPHIL ADHESION TO TNFα, IL-1α, AND LPS STIMULATED HUMAN UMBILICAL VEIN ENDOTHELIAL CELLS BY 3-ALKOXY-BENZO[b]THIOPHENE-2-CARBOXAMIDES
The previous assay using ^51 Cr labeled human neutrophils has been modified. The neutrophils are now labeled with the fluorescent dye calcein. The current method allows for quantification of neutrophil adherence by fluorescence spectroscopy.
Second passage HUVEC (Clonetics Corporation, San Diego, Calif., CC-2617) were seeded into Corning (Corning glass works, Corning, N.Y.) 96-well cell culture plates at approximately 5×10^3 cells/well and grown to confluency in supplemented endothelial basal medium (EBM, MCDB-131, Clonetics, 10 ng/mL EGF, 1 μg/mL hydrocortisone, 0.4% bovine brain extract, 5% Fetal Bovine Serum). One day prior to running the assay, typically 3 days postseeding, the cultures were refed with 0.2 mL/well supplemented EBM (S-EBM).
Preparation of Test Compounds
Test compounds were prepared as 10 mL stock solutions at a concentration of 1.0 mM. The compounds were initially solubilized in 0.1 mL DMSO followed by the addition of 9.9 mL S-EBM. The drug preparations were then diluted in one step to a concentration of 66.6 μM. Solubilizations and dilutions were performed in polystyrene containers.
Isolation of Human Neutrophils
Human neutrophils were isolated from anticoagulant-treated venous blood obtained from healthy volunteers according to the method of Ferrante and Thong. The cell preparations consisted of greater than 98% neutrophils.
Recombinant human tumor necrosis factor-α (TNF, Genzyme, Boston, Mass., code TNF-H) was prepared at 400 U/mL in S-EBM. Stock TNF was prepared to 20,000 U/mL in Delbecco's phosphate-buffered saline (PBS, Gibco, Grand Island N.Y.) plus 0.1% BSA and stored at -70° C. […] This was accomplished by adding 0.1 mL of 400 U/mL TNF and 0.1 mL 66.6 μM test compound. These additions were done slowly as to not disrupt the HUVEC monolayer. Each compound was tested in six wells. Unstimulated (vehicle control) and TNF-stimulated without test compound treatments were also run in each plate.
One hour prior to adding the neutrophils to the HI/VEC, neutrophils (5×10^6 /mL) were labeled for 30 minutes at 37° C. with 5 μM calcine-AM (Molecular Probes, Eugene, OR) in Hanks' balanced salt solution plus 0.45% BSA. Stock calcein was prepared to 5 mM in anhydrous DMSO and stored desiccated at -20° C. At the end of the incubation the cells were washed two times in cold HBSS and resuspended to a final concentration of 1×10^6 cells/mL in unsupplemented EBM.
Addition of Neutrophils to HUVEC
At the end of the 4-hour stimulation and immediately prior to the addition of the neutrophils to the HUVEC monolayer, the plates were washed with 0.2 mL warm unsupplemented EBM to remove TNF and drug. Neutrophils (1×10^5 cells) were slowly added to each of the treated wells and incubated for 30 minutes at 37° C. At the end of the incubation the plates were washed two times with 0.2 mL warm unsupplemented EBM followed by a final addition of 0.1 mL for plate scanning.
Determination of Relative Fluorescence
The relative fluorescence was determined using a Millipore Cytofluor 2300 system (excitation=480, emission=530, sensitivity=4).
Results were expressed as means of percent inhibition of TNF-stimulated adherence, using the following equation. [formula] […] Linear regression analysis of the means of the inhibition values were used to determine the IC50.
The compounds of Examples 36-44 in Table 2 and 45-53 in Table 3 were tested according to the modified method.

[2] = tested on: human neutrophil adhesion to TNFα, IL-1α, and LPS-stimulated human umbilical vein endothelial cells; assay: Inhibition of human neutrophil adhesion to stimulated HUVEC (51Cr-labeled neutrophils); type: cell-based
Source text: METHOD FOR DETERMINING THE INHIBITION OF HUMAN NEUTROPHIL ADHESION TO TNFα, IL-1α, AND LPS-STIMULATED HUMAN UMBILICAL VEIN ENDOTHELIAL CELLS BY 3-ALKYLOXY-, ARYLOXY-, OR ARYLALKYLOXY BENZO[b]THIOPHENE-2-CARBOXAMIDES
Neutrophils were isolated from anticoagulant-treated venous blood obtained from healthy human volunteers according to the method of Ferrante and Thong (J. Immunol. Methods 1978;24:389-93).
Second passage human umbilical vein endothelial cells (HUVEC) (Clonetics, San Diego, Calif.) were seeded into Falcon 24-well cell culture plates (Becton Dickinson, Lincoln Park, N.J.) at approximately 2×10^4 cells per well. The cells were grown to confluent monolayers in endothelial basal medium (EBM, Clonetics) supplemented with 5% fetal calf serum (Hyclone Laboratories, Logan, Utah), 10 ng/mL EGF, 1 μg/mL hydrocortisone, 0.4% bovine brain extract (Clonetics) in 5% CO2 at 37° C.
Neutrophils (30×10^6) were labeled for 60 minutes at 37° C. with 100 μCi Na^51 CrO4 (ICN Biomedicals, Costa Mesa, Calif.) in 2.0 mL Ca^2+ - and Mg^2+ -free Hanks' balanced salt solution (HBSS, GIBCO Laboratories, Grand Island, N.Y.). The cells were washed two times in HBSS and suspended in unsupplemented EBM.
Stimulation of HUVEC with tumor necrosis factor-α (TNFα) (Genzyme, Cambridge, Mass.) , interleukin (IL-1α) (Genzyrne) or E. coli 0111:B4 lipopolysaccharide (LPS) (Sigma) in the presence or absence of drug was initiated 4 hours prior to the addition of neutrophils. The suspension medium was unsupplemented EBM or supplemented EBM for studies with cytokines or LPS, respectively. […] Immediately prior to addition of ^51 Cr-labeled neutrophils to the HUVEC monolayers, the cultures were washed with 1 mL unsupplemented media to remove stimulus and/or drug. Neutrophils (5×10^5) were then added to the HUVEC in 0.5 mL unsupplemented media and incubated at 37° C. for 30 minutes. Nonadherent neutrophils were removed by aspiration. Following an additional wash, adherent neutrophils were lysed with 0.5 mL 1N NH4 OH overnight at 37° C. Lysates were collected and the radioactivity in each well was determined by gamma ray spectroscopy.

`COc1ccc2sc(C(=O)Nc3ccc(C(=O)O)c(O)c3)c(OC(C)C)c2c1` [Example 42, 2-Hydroxy-4-[[[5-methoxy-3-(1-methylethoxy)benzo[b]thien-2-yl]carbonyl]arnino]benzoic acid] was tested, and the IC50 ([1]; Table 2, footnote c not defined) was 34 µM.

`Cc1ccc2c(c1)c(OC(C)C)c(C(N)=O)[s+]2[O-]` (stereo not drawn) [Example 50, 5-Methyl-3-(1-methylethoxy)benzo[b]thiophene-2-carboxaraide-1-oxide] showed an inhibition [1] of 69%.

Work on `COc1ccc2c(c1)c(Oc1ccccc1)c(C(N)=O)[s+]2[O-]` (stereo not drawn) [Example 51, 5-Methoxy-3-phenoxybenzo[b]thiophene-2-carboxamide-1-oxide] yielded an inhibition [1] of 15%.

`COc1ccc2sc(C(=O)Nc3ccc(C(=O)O)cn3)c(OC(C)C)c2c1` [Example 37] gave an inhibition at 33.3 µM [1] of 8%.

Compound `COc1ccc2c(c1)c(OC)c(C(N)=O)[s+]2[O-]` (stereo not drawn) [Example 53, 3,5-Dimethoxybenzo[b]thiophene-2-carboxamide-1-oxide] has an inhibition [1] of 40%.

`COc1ccc2c(c1)c(OC(C)C)c(C(=O)NCc1ccccc1)[s+]2[O-]` (stereo not drawn) [Example 47, 5-Methoxy-3-(1-methylethoxy)-N-(phenylmethyl)benzo[b]thiophene-2-carboxamide-1-oxide] showed an inhibition [1] of 15%.

`CC(C)Oc1c(C(N)=O)[s+]([O-])c2ccc(O)cc12` (stereo not drawn) [Example 49, 5-Hydroxy-3-(1-methylethoxy)benzo[b]thiophene-2-carboxaraide-1-oxide] gave an inhibition [1] of 79%.

Work on `CNC(=O)c1c(OC(C)C)c2cc(OC)ccc2[s+]1[O-]` (stereo not drawn) [Example 46, 5-Methoxy-N-methyl-3-(1-methylethoxy)benzo[b]thiophene-2-carboxamide-1-oxide] yielded an inhibition [1] of 43%.

Compound `CCOC(=O)c1ccc(NC(=O)c2sc3ccc(OC)cc3c2OC(C)C)nc1` [Example 36, Ethyl 6-[[[5-methoxy-3-(1-methylethoxy)benzo[b]thien-2-yl]carbonyl]amino]-3-pyridinecarboxylate] has an inhibition at 33.3 µM [1] of 26%.

`COc1ccc2sc(C(N)=O)c(OC)c2c1` [Example 7, 3,5-Dimethoxybenzo[b]thiophene-2-carboxamide] gave an inhibition at 100 µM ([2]; Table 1, at 100 μM) of 60%.

`COc1ccc2sc(C(=O)NCCCC(=O)O)c(OC(C)C)c2c1` [Example 34, 4-[[[5-Methoxy-3-(1-methylethoxy)benzo[b]thien-2-yl]carbonyl]amino]butanoicacid] gave an inhibition at 100 µM ([2]; Table 2, at 100 μM) of 35%.

With `COc1ccc2sc(C(=O)Nc3nc(CC(=O)O)cs3)c(OC(C)C)c2c1` [Example 39, 2-[[[5-Methoxy-3-(1-methylethoxy)benzo[b]thien-2-yl]carbonyl]amino]-4-thiazoleacetic acid] the inhibition at 33.3 µM [1] was 26%.

For `COc1ccc2sc(C(N)=O)c(OCc3ccccc3)c2c1` [Example 8, 5-Methoxy-3-(phenylmethoxy)benzo[b]thiophene2-carboxamide], the inhibition at 100 µM ([2]; Table 1, at 100 μM) was 57%.

Compound `COc1ccc2sc(C(=O)Nc3cccc(CC(=O)O)c3)c(OC(C)C)c2c1` [Example 20, 3-[[[5-Methoxy-3-(1-methylethoxy)benzo[b]thien-2-yl]carbonyl]amino]benzeneacetic acid] has an inhibition at 100 µM ([2]; Table 2, at 100 μM) of 70%.

Compound `COC(=O)CCCCNC(=O)c1sc2ccc(OC)cc2c1OC(C)C` [Example 21, Methyl 5-[[[5-methoxy-3-(1-methylethoxy)benzo[b]thien2-yl]carbonyl]amino]pentanoate] has an inhibition at 100 µM ([2]; Table 2, at 100 μM) of 8%.

`COc1ccc2sc(C(=O)NCc3ccccc3)c(OC(C)C)c2c1` [Example 27, 5-Methoxy-3-(1-methylethoxy)-N-(phenylmethyl)benzo[b]thiophene-2-carboxamide] gave an inhibition at 100 µM ([2]; Table 2, at 100 μM) of 35%.

With `COc1ccc2c(c1)C(OC(C)C)=C(C(N)=O)S2(=O)=O` [Example 29, 5-Methoxy-3-(1-methylethoxy)benzo[b]thiophene2-carboxamide 1,1'-dioxide] the inhibition at 100 µM ([2]; Table 3, at 100 μM) was 4%.

`COc1ccc2sc(C(=O)Nc3ccc(C(=O)O)cc3OC)c(OC(C)C)c2c1` [Example 40, 3-Methoxy-4-[[[5-methoxy-3-(1-methylethoxy)benzo [b]thien-2-yl]carbonyl]amino]benzoic acid] was tested, and the inhibition at 33.3 µM [1] was 34%.

For `CCOC(=O)Cc1csc(NC(=O)c2sc3ccc(OC)cc3c2OC(C)C)n1` [Example 38, Ethyl 2-[[[5-methoxy-3-(1-methylethoxy)benzo[b]thien-2-yl]carbonyl]amino]-4-thiazoleacetate], the inhibition at 33.3 µM [1] was 72%.

Compound `COc1ccc2sc(C(N)=O)c(OC(C)(C)C)c2c1` [Example 30, 3-(1,1-Dimethylethoxy)-5-methoxybenzo[b]thiophene2-carboxamide] has an inhibition at 100 µM ([2]; Table 1, at 100 μM) of 100%.

`COc1ccc2sc(C(=O)NC(C)C)c(OC(C)C)c2c1` [Example 35, 5-Methoxy-3-(1-methylethoxy)-N-(1-methylethyl)benzo[b]thiophene-2-carboxamide] gave an inhibition at 100 µM ([2]; Table 2, at 100 μM) of 100%.
